Source: ChEMBL document CHEMBL4765381, “Neuropeptide FF and Its Receptors: Therapeutic Applications and Ligand Development” (J Med Chem, 2020)
One block for each compound: values may come before it. Numbered stars: 1 amine (or outer) side, 2 acyl side, 3 side chain; on linkers, the order of the positions; unused ones are H or OH. Square brackets hold non-standard residues; d marks the D form. Peptide text beside a SMILES is read from it. Nva(5-(4-Bn-piperidin-1-yl)) = N[C@@H](CCCN1CCC(Cc2ccccc2)CC1)C(=O)O; X1 = O=C1[C@@H](N[*:1])Cc2ccccc2CN1CCC(=O)[*:2]; Dmt = Cc1cc(O)cc(C)c1C[C@H](N)C(=O)O; NMeF = CN[C@@H](Cc1ccccc1)C(=O)O

Legend:
[1] = biological target: T1, Neuropeptide FF receptor 2 (Homo sapiens, UniProt Q9Y5X5); assay: Displacement of [125I]EYF from human NPFFR2 expressed in CHO cells by gamma-counter method; type: cell-based
T1 sequence (Q9Y5X5 whole entry): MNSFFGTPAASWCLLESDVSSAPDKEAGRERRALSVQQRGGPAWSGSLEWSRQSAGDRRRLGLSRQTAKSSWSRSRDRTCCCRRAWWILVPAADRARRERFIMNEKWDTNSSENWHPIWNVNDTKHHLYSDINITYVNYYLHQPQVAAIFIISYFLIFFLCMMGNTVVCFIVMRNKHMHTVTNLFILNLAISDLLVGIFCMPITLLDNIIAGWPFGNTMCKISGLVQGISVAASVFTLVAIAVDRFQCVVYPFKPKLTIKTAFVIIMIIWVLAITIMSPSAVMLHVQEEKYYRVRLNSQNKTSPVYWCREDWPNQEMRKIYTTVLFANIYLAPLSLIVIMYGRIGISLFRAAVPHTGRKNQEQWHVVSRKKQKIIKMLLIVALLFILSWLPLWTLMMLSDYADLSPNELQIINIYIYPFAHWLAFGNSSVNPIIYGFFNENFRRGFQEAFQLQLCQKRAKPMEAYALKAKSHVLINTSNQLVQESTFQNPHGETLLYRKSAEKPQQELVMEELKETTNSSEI

[2] = biological target: T2, Neuropeptide FF receptor 1 (Homo sapiens, UniProt Q9GZQ6); assay: Antagonist activity at human NPFFR1 expressed in CHO-K1 cells assessed as reversal of agonist-induced inhibition of forskolin-stimulated cAMP accumulation incubated for 30 mins by LANCE ultra cAMP assay; type: functional, cell-based
T2 sequence (Q9GZQ6 whole entry): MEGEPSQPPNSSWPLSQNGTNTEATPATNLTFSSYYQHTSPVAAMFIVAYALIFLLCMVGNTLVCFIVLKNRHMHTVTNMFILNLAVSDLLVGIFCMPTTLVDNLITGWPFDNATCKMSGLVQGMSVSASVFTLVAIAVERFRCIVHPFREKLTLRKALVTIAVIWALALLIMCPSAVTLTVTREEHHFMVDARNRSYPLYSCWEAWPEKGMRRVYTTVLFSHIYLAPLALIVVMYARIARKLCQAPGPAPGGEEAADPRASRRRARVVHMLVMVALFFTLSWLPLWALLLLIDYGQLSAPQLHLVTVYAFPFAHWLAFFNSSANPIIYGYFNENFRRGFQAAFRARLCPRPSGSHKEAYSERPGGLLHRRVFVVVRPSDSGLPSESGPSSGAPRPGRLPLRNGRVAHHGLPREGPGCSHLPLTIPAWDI

[3] = biological target: T1, Neuropeptide FF receptor 2; assay: Antagonist activity at human NPFFR2 expressed in CHO-K1 cells assessed as reversal of agonist-induced inhibition of forskolin-stimulated cAMP accumulation incubated for 30 mins by LANCE ultra cAMP assay; type: functional, cell-based
[4] = biological target: T1, Neuropeptide FF receptor 2; assay: Displacement of TAMRA-NPFF from human NPFFR2 expressed in CHO-K1 cells preincubated for 15 mins followed by GTPgammaS addition and measured after 15 to 120 mins by competitive binding assay; type: cell-based
[5] = biological target: T1, Neuropeptide FF receptor 2; assay: Agonist activity at human NPFFR2 expressed in CHO cells assessed as inhibition of forskolin-induced intracellular cAMP production incubated for 5 hrs by firefly/renilla luciferase reporter assay; type: functional, cell-based
[6] = biological target: T2, Neuropeptide FF receptor 1; assay: Agonist activity at NPFFR1 (unknown origin) expressed in mouse NIH3T3 cells by receptor selection and amplification technology assay relative to control; type: cell-based
[7] = biological target: Neuropeptide FF receptor 2 (Rattus norvegicus) (UniProt Q9EQD2); assay: Agonist activity at rat NPFFR2 by cell-based assay relative to control; conditions: filed as agonist
Neuropeptide FF receptor 2 (Rattus norvegicus), sequence (Q9EQD2 whole entry): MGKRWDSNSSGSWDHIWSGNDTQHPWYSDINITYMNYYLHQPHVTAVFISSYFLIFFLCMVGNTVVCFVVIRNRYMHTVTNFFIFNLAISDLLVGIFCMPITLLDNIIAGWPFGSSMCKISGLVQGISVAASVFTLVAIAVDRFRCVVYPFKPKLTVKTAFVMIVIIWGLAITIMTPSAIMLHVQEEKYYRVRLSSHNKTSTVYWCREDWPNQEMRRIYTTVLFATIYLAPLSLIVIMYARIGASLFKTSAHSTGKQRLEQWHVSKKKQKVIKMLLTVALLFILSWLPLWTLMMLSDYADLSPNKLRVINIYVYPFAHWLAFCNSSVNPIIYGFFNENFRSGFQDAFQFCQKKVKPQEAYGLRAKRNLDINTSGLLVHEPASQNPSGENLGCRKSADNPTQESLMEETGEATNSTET

[8] = biological target: T1, Neuropeptide FF receptor 2; assay: Antagonist activity at human NPFFR2 expressed in CHO-K1 cells assessed as apparent dissociation constant Ke by Eu-cAMP tracer based TR-FRET assay; type: functional, cell-based; conditions: filed as antagonist
[9] = biological target: T2, Neuropeptide FF receptor 1; assay: Antagonist activity at human NPFFR1 expressed in CHO-K1 cells assessed as apparent dissociation constant Ke by Eu-cAMP tracer based TR-FRET assay; type: functional, cell-based; conditions: filed as antagonist
[10] = biological target: T2, Neuropeptide FF receptor 1; assay: Displacement of [125I]NPFF from human NPFFR1 expressed in CHO cell membranes incubated for 120 mins by scintillation/luminescence counting method; design: species or system Membrane
[11] = biological target: T2, Neuropeptide FF receptor 1; assay: Antagonist activity at human NPFFR1 expressed in CHO-RD-HGA16 cells assessed as reduction in NPFF-induced calcium influx by measuring apparent dissociation constant Ke preincubated for 15 mins followed by NPFF addition by calcium-5 dye based fluorescence method; type: functional, cell-based; conditions: CHO/Galpha16, filed as antagonist
[12] = biological target: T1, Neuropeptide FF receptor 2; assay: Antagonist activity at human NPFFR2 expressed in CHO-RD-HGA16 cells assessed as reduction in NPFF-induced calcium influx by measuring apparent dissociation constant Ke preincubated for 15 mins followed by NPFF addition by calcium-5 dye based fluorescence method; type: functional, cell-based; conditions: CHO/Galpha16, filed as antagonist
[13] = biological target: T1, Neuropeptide FF receptor 2; assay: Displacement of [125I]NPFF from human NPFFR2 expressed in CHO cell membranes incubated for 120 mins by scintillation/luminescence counting method; design: species or system Membrane
[14] = biological target: T2, Neuropeptide FF receptor 1; assay: Agonist activity at human NPFFR1 expressed in CHO cells by [35S]-GTP S binding assay relative to control; type: cell-based
[15] = biological target: Mu-type opioid receptor (Homo sapiens) (UniProt P35372); assay: Agonist activity at human mu-opioid receptor expressed in HEK293 cells assessed as inhibition of forskolin-induced cAMP accumulation preincubated for 15 mins followed by forskolin addition in presence of IBMX by Glo-sensor cAMP assay relative to control; type: functional, cell-based; conditions: filed as agonist
Mu-type opioid receptor (Homo sapiens), sequence (P35372 whole entry): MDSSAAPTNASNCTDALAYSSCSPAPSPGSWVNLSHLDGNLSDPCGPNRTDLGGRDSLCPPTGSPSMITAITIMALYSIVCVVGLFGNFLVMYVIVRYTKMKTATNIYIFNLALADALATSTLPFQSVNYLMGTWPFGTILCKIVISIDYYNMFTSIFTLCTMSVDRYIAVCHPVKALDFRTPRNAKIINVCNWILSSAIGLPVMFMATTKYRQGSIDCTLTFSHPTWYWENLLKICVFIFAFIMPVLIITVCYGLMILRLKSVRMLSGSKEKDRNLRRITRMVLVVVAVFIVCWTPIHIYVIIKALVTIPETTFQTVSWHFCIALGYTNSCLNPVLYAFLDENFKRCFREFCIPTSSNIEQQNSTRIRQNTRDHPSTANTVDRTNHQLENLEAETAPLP

[16] = biological target: T1, Neuropeptide FF receptor 2; assay: Agonist activity at human NPFFR2 expressed in CHO cells by [35S]-GTP S binding assay relative to control; type: cell-based
[17] = biological target: Kappa-type opioid receptor (Homo sapiens, UniProt P41145); assay: Agonist activity at human kappa opioid receptor expressed in HEK293 cells assessed as inhibition of forskolin-induced cAMP accumulation incubated for 15 mins followed by forskolin addition in presence of IBMX by Glo-sensor cAMP assay relative to control; type: functional, cell-based
Kappa-type opioid receptor, sequence (P41145 whole entry): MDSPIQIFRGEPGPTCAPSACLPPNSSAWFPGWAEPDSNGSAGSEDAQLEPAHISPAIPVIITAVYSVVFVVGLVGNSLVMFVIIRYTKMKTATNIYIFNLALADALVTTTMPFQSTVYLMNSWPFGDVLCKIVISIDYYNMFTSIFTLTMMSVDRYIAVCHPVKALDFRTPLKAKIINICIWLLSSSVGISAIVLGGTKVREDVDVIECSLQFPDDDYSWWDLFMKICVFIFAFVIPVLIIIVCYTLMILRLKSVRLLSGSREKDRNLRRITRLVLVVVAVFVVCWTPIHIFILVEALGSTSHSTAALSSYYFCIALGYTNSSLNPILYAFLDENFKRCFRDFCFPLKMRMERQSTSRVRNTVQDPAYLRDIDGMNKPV

[18] = biological target: Delta-type opioid receptor (Homo sapiens) (UniProt P41143); assay: Agonist activity at human delta-opioid receptor expressed in HEK293 cells assessed as inhibition of forskolin-induced cAMP accumulation preincubated for 15 mins followed by forskolin addition in presence of IBMX by Glo-sensor cAMP assay relative to control; type: functional, cell-based; conditions: filed as agonist
Delta-type opioid receptor (Homo sapiens), sequence (P41143 whole entry): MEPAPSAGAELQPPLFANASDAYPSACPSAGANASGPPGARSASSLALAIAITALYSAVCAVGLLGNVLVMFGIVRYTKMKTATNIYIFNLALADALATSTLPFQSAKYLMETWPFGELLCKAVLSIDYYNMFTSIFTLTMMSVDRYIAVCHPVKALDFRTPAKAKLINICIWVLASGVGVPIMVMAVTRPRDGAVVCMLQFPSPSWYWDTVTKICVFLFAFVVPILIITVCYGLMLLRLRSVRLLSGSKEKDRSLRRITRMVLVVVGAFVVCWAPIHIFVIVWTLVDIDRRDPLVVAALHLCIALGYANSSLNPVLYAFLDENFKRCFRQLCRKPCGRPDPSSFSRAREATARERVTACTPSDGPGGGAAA

[19] = biological target: T2, Neuropeptide FF receptor 1; assay: Displacement of [125I]YVP from human NPFFR1 expressed in HEK293 cells by radioligand binding assay; type: cell-based
[20] = biological target: T1, Neuropeptide FF receptor 2; assay: Displacement of [125I]-1DMeNPFF from human NPFFR2 expressed in HEK293 cells incubated for 2 hrs by scintillation counting method; type: cell-based
[21] = Binding affinity to NPFFR in rat spinal cord; type: tissue-based
[22] = biological target: T2, Neuropeptide FF receptor 1; assay: Agonist activity at NPFFR1 (unknown origin) expressed in HEK293T cells harboring EP2 incubated for 15 mins by cAMP assay relative to control; type: functional, cell-based; conditions: filed as agonist
[23] = biological target: T2, Neuropeptide FF receptor 1; assay: Agonist activity at NPFFR1 (unknown origin) expressed in HEK293T cells harboring EP2 incubated for 15 mins by cAMP assay; type: functional, cell-based
[24] = biological target: T1, Neuropeptide FF receptor 2; assay: Agonist activity at NPFFR2 (unknown origin) expressed in HEK293T cells harboring EP2 incubated for 15 mins by cAMP assay relative to control; type: functional, cell-based; conditions: filed as agonist
[25] = biological target: T1, Neuropeptide FF receptor 2; assay: Agonist activity at NPFFR2 (unknown origin) expressed in mouse NIH3T3 cells by receptor selection and amplification technology assay relative to control; type: cell-based; conditions: filed as agonist
[26] = biological target: T2, Neuropeptide FF receptor 1; assay: Agonist activity at NPFFR1 (unknown origin) expressed in mouse NIH3T3 cells by receptor selection and amplification technology assay; type: cell-based
[27] = Displacement of [ […]]Y8Famide from NPFFR in rat spinal cord membranes; type: cell membranes, Membrane

SMILES: CC(C)C[C@H](NC(=O)[C@H](CC(N)=O)NC(=O)[C@@H]1CCCN1C(=O)[C@@H](N)C(C)C)C(=O)N1CCC[C@H]1C(=O)N[C@@H](CCC(N)=O)C(=O)N[C@@H](CCCNC(=N)N)C(=O)N[C@@H](Cc1ccccc1)C(N)=O
Ki [1]: 23 nM

SMILES: N=C(N)NCCC[C@@H](NC(=O)C(c1ccccc1)c1ccccc1)C(=O)N[C@@H](C(N)=O)c1ccccc1
IC50 [2]: 21 nM
IC50 [3]: 387 nM

SMILES: N=C(N)N/N=C/c1ccc(Cl)c(Cl)c1
Efficacy [6]: 12%

SMILES: CCCCCOC(=O)[C@@H]1C[C@H](NCc2ccc(OC)cc2)CN1Cc1ccccc1Cl
Ke [8]: 2.15 µM
Ke [9]: 0.36 µM
Ki [10]: 890 nM
Ke [11]: 0.85 µM
Ke [12]: 3.09 µM
Ki [13]: 1440 nM

SMILES: Cc1cc(O)cc(C)c1C[C@H](N)C(=O)N[C@H](CCCNC(=N)N)C(=O)N[C@H]1Cc2ccccc2CN(CCC(=O)N[C@@H](CCCN2CCC(Cc3ccccc3)CC2)C(=O)N[C@@H](Cc2ccccc2)C(N)=O)C1=O (H-[Dmt][dR][X1][Nva(5-(4-Bn-piperidin-1-yl))]F-NH2)
Emax [14]: 10%
Emax [15]: 85%
Emax [16]: 38%
Emax [17]: 34%
Emax [18]: 90%

SMILES: CC(C)C[C@H](NC(=O)[C@H](N)Cc1ccc(O)cc1)C(=O)N(C)[C@@H](Cc1ccccc1)C(=O)N[C@@H](CCC(N)=O)C(=O)N1CCC[C@H]1C(=O)N[C@@H](CCC(N)=O)C(=O)N[C@@H](CCCN=C(N)N)C(=O)N[C@@H](Cc1ccccc1)C(N)=O (H-[dY]L[NMeF]QPQRF-NH2)
Ki [19]: 2 nM
Ki [20]: 3.2 nM
Ki [21]: 0.07 nM

SMILES: CN(C)c1cccc2c(S(=O)(=O)N3CCC[C@H]3C(=O)N[C@@H](CCC(N)=O)C(=O)N[C@@H](CCCNC(=N)N)C(N)=O)cccc12 [DANSYLPQRAMIDE]
Ki [27]: 13000 nM

Further lines, results first:

Ki [4]: 2.17 nM
EC50 [5]: 2220 nM
SMILES: COc1cc2c(c(OC)c1OC)-c1c(cc3c(c1OC)CC3)[C@@H](C(=O)Oc1ccccc1)[C@@](C)(O)[C@@H](C)C2

Emax [7]: 61%
SMILES: Cc1cc(NC(=N)N)nc2ccc(Cl)cc12

Efficacy [22]: 42%
EC50 [23]: 3160 nM
Efficacy [24]: 89%
Efficacy [6]: 30.6%
Efficacy [25]: 108%
EC50 [26]: 3160 nM
SMILES: N=C(N)N/N=C/c1ccc(Cl)c(C(F)(F)F)c1
